The values below come from patent US20080095834A1, “Mitochondriotropic Phospholipid Vesicles” (priority 2005, published 2008).

The test system of this experiment is COLO205 colon cancer cells. The experiment can be described thus: Apoptotic DNA laddering, DNA gel separation analysis. To be noted: 18 hrs, ceramide 25 μM. It is filed as cell-based. As to the method: FIG. 8 represents a micrograph of DNA gel separation analysis of COLO205 cells incubated with C6 ceramide-loaded mitochondriotropic liposomes according to the invention for 18 hrs, followed by extraction of their DNA. The concentration of ceramide in all samples was 25 μM. Lane A—DNA marker; lane B—untreated control; lane C—ceramide-loaded plain liposomes; lane D—ceramide loaded STPP liposomes according to the invention; lane E—free ceramide. Black arrows indicate the apoptotic DNA ladder. Total amount of DNA was identical in all lanes; and
FIG. 8 represents a micrograph of DNA gel separation analysis of cells of the colon cancer cell line COLO205 incubated with C6 ceramide-loaded mitochondriotropic liposomes according to the invention for 18 hrs, followed by extraction of their DNA. The concentration of ceramide in all samples was 25 μM. Lane A—DNA marker; lane B—untreated control; lane C—ceramide-loaded plain liposomes; lane D—ceramide loaded STPP liposomes according to the invention; lane E—free ceramide. Black arrows indicate the apoptotic DNA ladder. The total amount of DNA was identical in all lanes.

`CCCCCCCCCCCCC/C=C/[C@@H](O)[C@H](CO)NC(=O)CCCCC` [free ceramide, C6 ceramide]: the “DNA laddering typical of apoptosis” value was “nor cells treated with free ceramide (Lane E, FIG. 8) showed the DNA laddering typical of apoptosis”.
